According to PubChem BioAssay (NCI):
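Step 1: Grow cells in 96-well plates. Step 2: Expose to compound for 48 hours at 5 concentrations. Step 3: Interpolate endpoints linearly; if unreached, use highest concentration. TGI: concentration producing complete growth inhibition.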

Legend:
Assay in all cases: DTP human tumour cell line panel, 48 h
SR leukemia = system: SR leukemia
OVCAR-8 ovarian = system: OVCAR-8 ovarian
U251 CNS = system: U251 CNS
LXFL 529 NSCLC = system: LXFL 529 NSCLC
DLD-1 colon = system: DLD-1 colon
HT29 colon = system: HT29 colon
CAKI-1 renal = system: CAKI-1 renal
DMS 114 small cell lung = system: DMS 114 small cell lung
SN12C renal = system: SN12C renal
KM20L2 colon = system: KM20L2 colon
UACC-257 melanoma = system: UACC-257 melanoma
SK-MEL-2 melanoma = system: SK-MEL-2 melanoma
MALME-3M melanoma = system: MALME-3M melanoma
EKVX NSCLC = system: EKVX NSCLC
SNB-19 CNS = system: SNB-19 CNS
UACC-62 melanoma = system: UACC-62 melanoma
SK-MEL-28 melanoma = system: SK-MEL-28 melanoma
HOP-62 NSCLC = system: HOP-62 NSCLC
M14 melanoma = system: M14 melanoma
RXF-631 renal = system: RXF-631 renal
K-562 leukemia = system: K-562 leukemia
SNB-75 CNS = system: SNB-75 CNS
NCI-H23 lung = system: NCI-H23 lung
KM12 colon = system: KM12 colon
CCRF-CEM leukemia = system: CCRF-CEM leukemia
SF-295 CNS = system: SF-295 CNS
SF-539 CNS = system: SF-539 CNS
HCT-116 colon = system: HCT-116 colon
ACHN renal = system: ACHN renal
COLO 205 colon = system: COLO 205 colon
A549 NSCLC = system: A549 NSCLC
RXF 393 renal = system: RXF 393 renal
HOP-18 NSCLC = system: HOP-18 NSCLC
SF-268 CNS = system: SF-268 CNS
MOLT-4 leukemia = system: MOLT-4 leukemia
OVCAR-4 ovarian = system: OVCAR-4 ovarian
SK-OV-3 ovarian = system: SK-OV-3 ovarian
786-0 renal = system: 786-0 renal
HOP-92 NSCLC = system: HOP-92 NSCLC
A498 renal = system: A498 renal
LOX IMVI melanoma = system: LOX IMVI melanoma
NCI-H226 lung = system: NCI-H226 lung
OVCAR-3 ovarian = system: OVCAR-3 ovarian
SK-MEL-5 melanoma = system: SK-MEL-5 melanoma
HL-60(TB) leukemia = system: HL-60(TB) leukemia
NCI-H522 lung = system: NCI-H522 lung
HCT-15 colon = system: HCT-15 colon
NCI-H460 lung = system: NCI-H460 lung
OVCAR-5 ovarian = system: OVCAR-5 ovarian
TK-10 renal = system: TK-10 renal
M19-MEL melanoma = system: M19-MEL melanoma
XF 498 CNS = system: XF 498 CNS
DMS 273 small cell lung = system: DMS 273 small cell lung
IGROV1 ovarian = system: IGROV1 ovarian
UO-31 renal = system: UO-31 renal
HCC-2998 colon = system: HCC-2998 colon
SW-620 colon = system: SW-620 colon
RPMI-8226 leukemia = system: RPMI-8226 leukemia
SNB-78 CNS = system: SNB-78 CNS

## CCOC(=O)/C=C/n1c2ccccc2c(=O)c2cc(OC)ccc21
SR leukemia
  TGI: > 100 µM
OVCAR-8 ovarian
  TGI: > 100 µM
U251 CNS
  TGI: > 100 µM
LXFL 529 NSCLC
  TGI: > 100 µM
DLD-1 colon
  TGI: > 100 µM
HT29 colon
  TGI: > 100 µM
CAKI-1 renal
  TGI: > 100 µM
DMS 114 small cell lung
  TGI: > 100 µM
SN12C renal
  TGI: > 100 µM
KM20L2 colon
  TGI: > 100 µM
UACC-257 melanoma
  TGI: > 100 µM
SK-MEL-2 melanoma
  TGI: > 100 µM
MALME-3M melanoma
  TGI: > 100 µM
EKVX NSCLC
  TGI: > 100 µM
SNB-19 CNS
  TGI: > 100 µM
UACC-62 melanoma
  TGI: > 100 µM
SK-MEL-28 melanoma
  TGI: > 100 µM
HOP-62 NSCLC
  TGI: > 100 µM
M14 melanoma
  TGI: > 100 µM
RXF-631 renal
  TGI: > 100 µM
K-562 leukemia
  TGI: > 100 µM
SNB-75 CNS
  TGI: > 100 µM
NCI-H23 lung
  TGI: > 100 µM
KM12 colon
  TGI: > 100 µM
CCRF-CEM leukemia
  TGI: > 100 µM
SF-295 CNS
  TGI: > 100 µM
SF-539 CNS
  TGI: > 100 µM
HCT-116 colon
  TGI: > 100 µM
ACHN renal
  TGI: > 100 µM
COLO 205 colon
  TGI: > 100 µM
A549 NSCLC
  TGI: > 100 µM
RXF 393 renal
  TGI: > 100 µM
HOP-18 NSCLC
  TGI: > 100 µM
SF-268 CNS
  TGI: > 100 µM
MOLT-4 leukemia
  TGI: > 100 µM
OVCAR-4 ovarian
  TGI: > 100 µM
SK-OV-3 ovarian
  TGI: > 100 µM
786-0 renal
  TGI: > 100 µM
HOP-92 NSCLC
  TGI: > 100 µM
A498 renal
  TGI: > 100 µM
LOX IMVI melanoma
  TGI: 41.3 µM
NCI-H226 lung
  TGI: > 100 µM
OVCAR-3 ovarian
  TGI: > 100 µM
SK-MEL-5 melanoma
  TGI: > 100 µM
HL-60(TB) leukemia
  TGI: > 100 µM
NCI-H522 lung
  TGI: > 100 µM
HCT-15 colon
  TGI: > 100 µM
NCI-H460 lung
  TGI: > 100 µM
OVCAR-5 ovarian
  TGI: > 100 µM
TK-10 renal
  TGI: > 100 µM
M19-MEL melanoma
  TGI: > 100 µM
XF 498 CNS
  TGI: > 100 µM
DMS 273 small cell lung
  TGI: > 100 µM
IGROV1 ovarian
  TGI: > 100 µM
UO-31 renal
  TGI: > 100 µM
HCC-2998 colon
  TGI: > 100 µM

## CCCCCCCCSC(=O)NCCCC
OVCAR-8 ovarian
  TGI: > 100 µM
U251 CNS
  TGI: > 100 µM
LXFL 529 NSCLC
  TGI: > 100 µM
DLD-1 colon
  TGI: > 100 µM
HT29 colon
  TGI: 66.6 µM
CAKI-1 renal
  TGI: > 100 µM
SN12C renal
  TGI: > 100 µM
KM20L2 colon
  TGI: 62.5 µM
SK-MEL-2 melanoma
  TGI: 45.6 µM
MALME-3M melanoma
  TGI: 68.5 µM
EKVX NSCLC
  TGI: 75.4 µM
SNB-19 CNS
  TGI: > 100 µM
UACC-62 melanoma
  TGI: > 100 µM
SK-MEL-28 melanoma
  TGI: 88.7 µM
M14 melanoma
  TGI: 79 µM
RXF-631 renal
  TGI: > 100 µM
K-562 leukemia
  TGI: > 100 µM
SNB-75 CNS
  TGI: 84.7 µM
NCI-H23 lung
  TGI: > 100 µM
KM12 colon
  TGI: > 100 µM
CCRF-CEM leukemia
  TGI: > 100 µM
SF-295 CNS
  TGI: > 100 µM
SF-539 CNS
  TGI: > 100 µM
ACHN renal
  TGI: > 100 µM
COLO 205 colon
  TGI: > 100 µM
A549 NSCLC
  TGI: > 100 µM
SW-620 colon
  TGI: > 100 µM
RXF 393 renal
  TGI: 69.3 µM
HOP-18 NSCLC
  TGI: > 100 µM
SF-268 CNS
  TGI: > 100 µM
MOLT-4 leukemia
  TGI: 87 µM
OVCAR-4 ovarian
  TGI: > 100 µM
SK-OV-3 ovarian
  TGI: > 100 µM
786-0 renal
  TGI: > 100 µM
HOP-92 NSCLC
  TGI: 53.9 µM
A498 renal
  TGI: > 100 µM
LOX IMVI melanoma
  TGI: 40.2 µM
OVCAR-3 ovarian
  TGI: > 100 µM
SK-MEL-5 melanoma
  TGI: 46.6 µM
HL-60(TB) leukemia
  TGI: 41.3 µM
NCI-H522 lung
  TGI: 80.4 µM
HCT-15 colon
  TGI: 96.8 µM
NCI-H460 lung
  TGI: > 100 µM
OVCAR-5 ovarian
  TGI: > 100 µM
TK-10 renal
  TGI: > 100 µM
M19-MEL melanoma
  TGI: > 100 µM
XF 498 CNS
  TGI: 47.2 µM
DMS 273 small cell lung
  TGI: > 100 µM
IGROV1 ovarian
  TGI: > 100 µM
RPMI-8226 leukemia
  TGI: 57.9 µM
UO-31 renal
  TGI: 51.6 µM

## Cc1ccccc1NC(=O)CC1C(=O)Nc2ccccc2S1=O (stereo not given)
SR leukemia
  TGI: > 100 µM
OVCAR-8 ovarian
  TGI: > 100 µM
U251 CNS
  TGI: > 100 µM
LXFL 529 NSCLC
  TGI: > 100 µM
DLD-1 colon
  TGI: > 100 µM
HT29 colon
  TGI: > 100 µM
CAKI-1 renal
  TGI: > 100 µM
DMS 114 small cell lung
  TGI: > 100 µM
SN12C renal
  TGI: > 100 µM
KM20L2 colon
  TGI: > 100 µM
UACC-257 melanoma
  TGI: > 100 µM
SK-MEL-2 melanoma
  TGI: > 100 µM
MALME-3M melanoma
  TGI: > 100 µM
EKVX NSCLC
  TGI: > 100 µM
SNB-78 CNS
  TGI: > 100 µM
SNB-19 CNS
  TGI: > 100 µM
UACC-62 melanoma
  TGI: > 100 µM
SK-MEL-28 melanoma
  TGI: > 100 µM
M14 melanoma
  TGI: > 100 µM
RXF-631 renal
  TGI: > 100 µM
K-562 leukemia
  TGI: > 100 µM
SNB-75 CNS
  TGI: 65.9 µM
NCI-H23 lung
  TGI: > 100 µM
CCRF-CEM leukemia
  TGI: > 100 µM
SF-295 CNS
  TGI: > 100 µM
SF-539 CNS
  TGI: 94.3 µM
HCT-116 colon
  TGI: > 100 µM
ACHN renal
  TGI: > 100 µM
A549 NSCLC
  TGI: > 100 µM
SW-620 colon
  TGI: > 100 µM
RXF 393 renal
  TGI: 51.8 µM
SF-268 CNS
  TGI: > 100 µM
MOLT-4 leukemia
  TGI: > 100 µM
OVCAR-4 ovarian
  TGI: > 100 µM
786-0 renal
  TGI: > 100 µM
HOP-92 NSCLC
  TGI: > 100 µM
A498 renal
  TGI: > 100 µM
LOX IMVI melanoma
  TGI: > 100 µM
NCI-H226 lung
  TGI: > 100 µM
OVCAR-3 ovarian
  TGI: > 100 µM
SK-MEL-5 melanoma
  TGI: > 100 µM
HL-60(TB) leukemia
  TGI: > 100 µM
NCI-H522 lung
  TGI: > 100 µM
HCT-15 colon
  TGI: > 100 µM
NCI-H460 lung
  TGI: > 100 µM
OVCAR-5 ovarian
  TGI: > 100 µM
TK-10 renal
  TGI: > 100 µM
M19-MEL melanoma
  TGI: > 100 µM
XF 498 CNS
  TGI: > 100 µM
DMS 273 small cell lung
  TGI: > 100 µM
IGROV1 ovarian
  TGI: > 100 µM
RPMI-8226 leukemia
  TGI: > 100 µM
UO-31 renal
  TGI: > 100 µM
HCC-2998 colon
  TGI: > 100 µM

## CCCC(=O)OCC1OC2OC(C)(C)OC2C2OC(C)(C)OC12 (stereo not given)
SR leukemia
  TGI: > 100 µM
OVCAR-8 ovarian
  TGI: > 100 µM
U251 CNS
  TGI: > 100 µM
HT29 colon
  TGI: > 100 µM
UACC-257 melanoma
  TGI: > 100 µM
EKVX NSCLC
  TGI: > 100 µM
SNB-78 CNS
  TGI: > 100 µM
SNB-19 CNS
  TGI: > 100 µM
SK-MEL-28 melanoma
  TGI: > 100 µM
HOP-62 NSCLC
  TGI: > 100 µM
M14 melanoma
  TGI: > 100 µM
RXF-631 renal
  TGI: > 100 µM
NCI-H23 lung
  TGI: > 100 µM
KM12 colon
  TGI: > 100 µM
CCRF-CEM leukemia
  TGI: > 100 µM
SF-295 CNS
  TGI: > 100 µM
HCT-116 colon
  TGI: > 100 µM
ACHN renal
  TGI: > 100 µM
A549 NSCLC
  TGI: > 100 µM
RXF 393 renal
  TGI: > 100 µM
MOLT-4 leukemia
  TGI: > 100 µM
SK-OV-3 ovarian
  TGI: > 100 µM
HOP-92 NSCLC
  TGI: > 100 µM
A498 renal
  TGI: > 100 µM
NCI-H226 lung
  TGI: > 100 µM
HL-60(TB) leukemia
  TGI: > 100 µM
NCI-H522 lung
  TGI: > 100 µM
NCI-H460 lung
  TGI: > 100 µM
OVCAR-5 ovarian
  TGI: > 100 µM
TK-10 renal
  TGI: 61.1 µM
M19-MEL melanoma
  TGI: > 100 µM
DMS 273 small cell lung
  TGI: > 100 µM
IGROV1 ovarian
  TGI: > 100 µM
UO-31 renal
  TGI: > 100 µM
